Earlier results as cited in patent publication US20210008081A1, “ORAL LIQUID FORMULATIONS OF ABIRATERONE” (LEIUTIS PHARMACEUTICALS PVT, LTD, priority 2018, published 2021).

Solubility in organic solvents: sparingly soluble to freely soluble | Solubility in water: practically insoluble | Biopharmaceutical classification system class (low solubility low permeability): class IV | Solubility in aqueous media (over a wide range of pH): practically insoluble
SMILES: CC(=O)O[C@H]1CC[C@@]2(C)C(=CC[C@@H]3[C@@H]2CC[C@]2(C)C(c4cccnc4)=CC[C@@H]32)C1 [Abiraterone acetate]
